Data published in patent publication US20020045780A1, “Biologically active spermidine analogues, pharmaceutical compositions and methods of treatment” (priority 1997, published 2002).
Where “and” joins values, the source holds several entries; their conditions need not be identical. Identical values can stand only once. Entries after “also recorded” stand apart in the source; their conditions may differ. Counter-ions that a name gives are not always drawn. Like-named read-outs stand apart in the source and are kept apart here.

Assays:
L1210 cells [1] = assay: L1210 growth inhibition, IC50 determination; assay type: cell-based, murine
Description: Murine L1210 leukemia cells (ATCC CCL 219) were maintained in logarithmic growth in RPMI-1640 medium containing 10% fetal calf serum or a semi-synthetic equivalent, NuSerum, 2% HEPES-MOPS buffer and 1 mM aminoguanidine.

[2] = tested on: polyamine transport apparatus; assay: Competitive uptake determination: inhibition of [3H]spermidine transport into L1210 cells; assay type: cell-based, murine; conditions: analogue inhibition of spermidine transport
In short: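 Analogues competed with [3H]spermidine for uptake into L1210 cells. Values are Ki, derived from Lineweaver–Burk analysis as competitive inhibition with respect to spermidine.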

L1210 cells [3] = assay: Polyamine pool analysis in L1210 cells; assay type: cell-based, murine; conditions: 48 hours; for activity at 3 µM / activity at 15 µM / activity at 75 µM: Mus musculus, L1210, % of untreated control; for Analogue: intracellular amount
In short: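 Cells were exposed to each analogue for 48 h at two concentrations. Washed pellets were extracted with 0.6 N HClO4 (1 ml/10^7 cells), and polyamines were quantified by HPLC of dansyl derivatives.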

[4] = tested on: ornithine decarboxylase (ODC); assay: ODC activity in treated L1210 cells; assay type: cell-based, murine; conditions: L1210, 1 μM at 4 hours
In short: (§1)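 L1210 cells treated with triamines; ODC activity measured at 4 h and AdoMetDC at 6 h as ^14CO2 released from [^14C]-carboxyl-labeled L-ornithine (ODC) or S-adenosyl-L-methionine (AdoMetDC). Untreated cells served as controls and DEHSPM-treated cells as positive controls.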

[5] = tested on: S-adenosylmethionine decarboxylase (AdoMetDC); assay: AdoMetDC activity in treated L1210 cells; assay type: cell-based, murine; conditions: L1210, 1 μM at 6 hours
In short: as §1

[6] = tested on: spermidine/spermine acetyltransferase (SSAT); assay: SSAT activity in treated L1210 cells; assay type: cell-based, murine; conditions: L1210, 10 μM at 48 hours (triamine analogues)
Source text: Spermidine/spermine N^1-acetyltransferase activity was based on quantitation of [^14C]-N^1-acetylspermidine formed by acetylation of SPD with [^14C] acetyl coenzyme A according to the method of Libby et al [Biochem. Pharmacol., Vol. 38, supra]. Cells treated with DENSPM were positive controls.

L1210 cells [7] = assay: Metabolic transformation of polyamine analogues by L1210 cells; assay type: in vitro ADME, murine; conditions: 48 hours; for N-Monodealkylation (result in words): Trihydrochloride
Description: The cells were washed twice with cold RPMI-1640, and the pellet was treated with 0.6 N HClO4 (1 ml/10^7 cells). Polyamine contents of the perchloric acid extracts were quantitated by HPLC of the DANSYL derivatives [Bergeron et al, J. Med. Chem., Vol. 37, supra].

[8] = Acute toxicity in mice (single i.p. dose); assay type: in vivo; conditions: female, CD-1, mouse, in vivo, ip, mice, single dose i.p., scored two hours after dose, read-out: Acute LD50
Description: In the current study, the acute toxicity of six analogues and the chronic toxicity of two triamines were measured (Table 7). The value of all polyamine LD50s are shown in both mg/kg and mmol/kg for comparison. […] The animals were scored two hours after administration of the drug. It is clear that the acute LD50s for triamine analogues are approximately twice the acute LD50s for the corresponding tetraamine analogues.
(§2) Acute and chronic toxicities were assessed in 10-12 week old CD-1 female mice from Harlan Sprague-Dawley. For acute toxicities, the polyamine analogues were administered in a single i.p. injection to groups of five or six animals at each dose. The animals were scored two hours after administration of the dose. All survivors were further observed for 10 days to assess late onset of toxicity from the single acute dose. In the chronic toxicity regimen, mice were administered polyamine analogue in three i.p. doses per day (t.i.d.) for six days, for a total of eighteen doses per animal. Appetite, weight and overall appearance were monitored daily. […] At least three test groups of 5-6 animals each, representing three different dose levels, were evaluated for each analogue tested. These dose levels were chosen so that at least two groups presented with lethalities, one with a high fraction of lethalities (>0.50, but <1.00).

mice = assay type: in vivo
Description: In the chronic toxicity regimen, mice were administered the polyamine analogue in three doses per day (t.i.d.) for six days for a total of eighteen injections per animal and observed for 10 days after the final dose for lethalities. […] A similar difference is also observed in the chronic toxicity of DE(3,4).
as §2

[9] = Mus musculus, L1210, 48 h, L1210, 48 hour exposure, read-out: IC50 48 hour
[10] = Mus musculus, L1210, 96 h, L1210, 96 hour exposure, read-out: IC50 96 hour

SMILES	IC50 (L1210 cells [1]; [9]) [µM]	IC50 (L1210 cells [1]; [10]) [µM]	Ki [2] [µM]	activity at 15 µM (L1210 cells [3]; 15 μM, read-out: Put) [%]	activity at 15 µM (L1210 cells [3]; 15 μM, read-out: Spd) [%]	activity at 15 µM (L1210 cells [3]; 15 μM, read-out: Spm) [%]	Analogue (L1210 cells [3]; 15 μM) [nmol/10^6 cells]	ODC activity, percent of untreated control [4]	AdoMetDC activity, percent of untreated control [5]	LD50 at 2 h ([8]; hydrochloride salts) [mg/kg]	LD50 at 2 h [8] [µmol/kg]	also measured
CCNCCCCCNCCCCNCC [DE(4,5), 3,8,14-Triazahexadecane Trihydrochloride]	2 to 6	0.19 to 0.2	64	0	18	98	3.40	100% of untreated control	70% of untreated control	555	1640	IC50 (L1210 cells [1]; L1210, 48 hour exposure, Trihydrochloride, read-out: IC50 48 hour): 3 to 6 µM; activity at 3 µM (L1210 cells [3]; 3 μM, read-out: Put): 0%; activity at 3 µM (L1210 cells [3]; 3 μM, read-out: Spd): 47%; activity at 3 µM (L1210 cells [3]; 3 μM, read-out: Spm): 99%; Analogue (L1210 cells [3]; 3 μM): 1.20 nmol/10^6 cells; SSAT activity, percent of untreated control ([6]; Trihydrochloride): 120% of untreated control and 120 (120) percent of untreated control; Parent drug as % of total drug in the cell (L1210 cells [7]; 100 μM analogue): 100%; Parent drug in L1210 cells (L1210 cells [7]; 100 μM analogue): 4215 pmols/10^6; N-Monodealkylation (result in words) (L1210 cells [7]; 100 μM analogue): do not show significant N-deethylation; also recorded: no N-deethylation; Chronic LD50 (triamines) (mice; mice, i.p. t.i.d. × 6 days, hydrochloride salts): 375 mg/kg-day; Chronic LD50 (triamines) (mice; mouse, in vivo, ip): 1.11 mmol/kg/day; Chronic toxicity in mice relative to the related tetraamine (mice; ratio of chronic LD50 values, Table 7, Trihydrochloride): about eight-fold less toxic than the DE(4,5,4); also recorded: greater than ten-fold less toxic than DE(5,4,5)
CCNCCCCCNCCCCCNCC [DE(5,5), 3,9,15-Triazaheptadecane Trihydrochloride]	10 to 12	0.65 to 0.7	174	0	55	97	1.09	100% of untreated control	109% of untreated control	500	1420	activity at 75 µM (L1210 cells [3]; 75 μM, read-out: Put): 0%; activity at 75 µM (L1210 cells [3]; 75 μM, read-out: Spd): 23%; activity at 75 µM (L1210 cells [3]; 75 μM, read-out: Spm): 73%; Analogue (L1210 cells [3]; 75 μM): 1.59 nmol/10^6 cells; SSAT activity, percent of untreated control [6]: 90% of untreated control; Parent drug as % of total drug in the cell (L1210 cells [7]; 75 μM analogue): 100%; Parent drug in L1210 cells (L1210 cells [7]; 75 μM analogue): 1585 pmols/10^6; N-Monodealkylation (result in words) (L1210 cells [7]; 75 μM analogue): do not show significant N-deethylation; N-Monodealkylation (result in words) (L1210 cells [7]; 75 μM analogue, listed as DE-[6,6]): no N-deethylation
